Here are results for 25 compounds from patent US12649751B2 (Arcus Biosciences, Inc., priority 2022, dated 2026).

Some results are limits rather than exact numbers.

Assay [1] addresses HPK1 (Homo sapiens, UniProt Q92918). In words: HPK1 Biochemical Assay (ADP-Glo luminescence; low ATP 10 μM or high ATP 200 μM). To be noted: 2 nM HPK1, 10 μM ATP; read-out: Biochemical Potency (low ATP). (In ADP-Glo the light output rises with the ADP produced.)
For assay [2], the system named is p-SLP-76 (Ser376) in Jurkat cells. The assay is described as follows: pSLP76 Cellular Assay (AlphaLISA SureFire Ultra p-SLP-76 (Ser376), anti-CD3 activated Jurkat cells). It is filed as cell-based. To be noted: Homo sapiens; Jurkat cells, anti-CD3 stimulation, pSLP76; read-out: Cellular Potency. Put shortly:
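Jurkat cells, serum-starved overnight in Opti-MEM then in HBSS, preincubated 1 h at 37 °C with 22-point 2-fold compound dilutions, then stimulated with anti-CD3 (0.025 mg/ml added solution) for 45 min. Lysate p-SLP-76 (Ser376) measured by AlphaLISA at 570 nm; IC50 from 4-parameter logistic fit.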
(Alpha assays give light when donor and acceptor beads are brought close together.)

HPK1, sequence (Q92918 whole entry, species assumed): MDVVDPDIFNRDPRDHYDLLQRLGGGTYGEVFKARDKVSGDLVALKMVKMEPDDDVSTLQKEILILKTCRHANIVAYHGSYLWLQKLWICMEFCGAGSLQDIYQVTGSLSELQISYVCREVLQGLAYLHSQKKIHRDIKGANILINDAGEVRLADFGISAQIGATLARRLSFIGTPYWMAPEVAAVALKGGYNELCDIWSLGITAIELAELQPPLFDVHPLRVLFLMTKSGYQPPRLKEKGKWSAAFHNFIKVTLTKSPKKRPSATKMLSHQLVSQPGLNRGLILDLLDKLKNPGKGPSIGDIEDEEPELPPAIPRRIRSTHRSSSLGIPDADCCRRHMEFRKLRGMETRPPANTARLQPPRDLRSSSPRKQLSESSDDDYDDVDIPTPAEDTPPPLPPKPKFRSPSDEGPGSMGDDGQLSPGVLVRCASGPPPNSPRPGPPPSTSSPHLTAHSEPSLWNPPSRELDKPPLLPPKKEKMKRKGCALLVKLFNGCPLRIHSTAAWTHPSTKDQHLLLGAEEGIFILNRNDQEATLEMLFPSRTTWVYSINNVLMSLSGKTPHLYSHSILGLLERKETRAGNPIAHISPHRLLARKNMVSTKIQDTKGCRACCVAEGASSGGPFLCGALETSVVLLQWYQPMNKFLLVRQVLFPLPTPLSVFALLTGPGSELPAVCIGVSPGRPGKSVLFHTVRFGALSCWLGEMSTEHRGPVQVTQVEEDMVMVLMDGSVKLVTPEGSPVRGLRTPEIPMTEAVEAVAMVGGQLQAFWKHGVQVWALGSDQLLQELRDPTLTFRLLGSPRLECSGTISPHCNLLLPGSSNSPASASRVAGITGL

Turning to `CN1C[C@@H]2C[C@H]1CN2c1cccc(Nc2cc3nc(-c4cccc(C(C)(C)O)c4)sc3cn2)n1` [Example 132, 2-{3-[6-({6-[(1S,4S)-5-Methyl-2,5-diazabicyclo[2.2.1]heptan-2-yl]pyridin-2-yl}amino)-[1,3]thiazolo[5,4-c]pyridin-2-yl]phenyl}propan-2-ol], the IC50 in assay [1] and in assay [2] was < 100 nM each time.
Consider `CN1C[C@@H]2C[C@H]1CN2c1cccc(Nc2cc3nc(-c4cccc(C#N)c4)sc3cn2)n1` [Example 133, 3-[6-({6-[(1S,4S)-5-Methyl-2,5-diazabicyclo[2.2.1]heptan-2-yl]pyridin-2-yl}amino)-[1,3]thiazolo[5,4-c]pyridin-2-yl]benzonitrile], for which the IC50 in assay [1] is < 100 nM; in assay [2] it was > 5000 nM.
On the same counts, the results for `Cc1c(-c2nc3cc(Nc4cccc(N5C[C@@H]6C[C@H]5CN6C)n4)ncc3s2)cnc2c1NCCO2` [Example 134, N-(2-{8-Methyl-1H,2H,3H-pyrido[2,3-b][1,4]oxazin-7-yl}-[1,3]thiazolo[5,4-c]pyridin-6-yl)-6-[(1S,4S)-5-methyl-2,5-diazabicyclo[2.2.1]heptan-2-yl]pyridin-2-amine] are < 100 nM and 1000 to 5000 nM.
On the same counts, the results for `CNC(=O)c1cccc(-c2nc3cc(Nc4cccc(N5C[C@@H]6C[C@H]5CN6C)n4)ncc3s2)c1` [Example 135, N-Methyl-3-[6-({6-[(1S,4S)-5-methyl-2,5-diazabicyclo[2.2.1]heptan-2-yl]pyridin-2-yl}amino)-[1,3]thiazolo[5,4-c]pyridin-2-yl]benzamide] are < 100 nM and 1000 to 5000 nM.
Consider `CN(C)C(=O)c1cccc(-c2nc3cc(Nc4cccc(N5C[C@@H]6C[C@H]5CN6C)n4)ncc3s2)c1` [Example 137, N,N-Dimethyl-3-[6-({6-[(1S,4S)-5-methyl-2,5-diazabicyclo[2.2.1]heptan-2-yl]pyridin-2-yl}amino)-[1,3]thiazolo[5,4-c]pyridin-2-yl]benzamide], for which the results for the IC50 in assay [1] and in assay [2] were < 100 nM and 100 to 1000 nM, respectively.
Turning to `Cc1ccncc1-c1nc2cc(Nc3cccc(N4C[C@@H]5C[C@H]4CN5C)n3)ncc2s1` [Example 139, 6-[(1S,4S)-5-Methyl-2,5-diazabicyclo[2.2.1]heptan-2-yl]-N-[2-(4-methylpyridin-3-yl)-[1,3]thiazolo[5,4-c]pyridin-6-yl]pyridin-2-amine], the IC50 is < 100 nM in assay [1] and 100 to 1000 nM in assay [2].
In the same order, the values of `CN(C)C(=O)c1cccc(-c2nc3cc(Nc4cccc(N5C[C@@H]6C[C@H]5CN6)n4)ncc3s2)c1` [Example 140, 3-[6-({6-[(1S,4S)-2,5-Diazabicyclo[2.2.1]heptan-2-yl]pyridin-2-yl}amino)-[1,3]thiazolo[5,4-c]pyridin-2-yl]-N,N-dimethylbenzamide] are < 100 nM and 100 to 1000 nM.
In the case of `CS(=O)(=O)c1cccc(-c2nc3cc(Nc4cccc(N5C[C@@H]6C[C@H]5CN6)n4)ncc3s2)c1` [Example 141, 6-[(1S,4S)-2,5-Diazabicyclo[2.2.1]heptan-2-yl]-N-[2-(3-methanesulfonylphenyl)-[1,3]thiazolo[5,4-c]pyridin-6-yl]pyridin-2-amine], the IC50 is < 100 nM in assay [1] and 100 to 1000 nM in assay [2].
In the same order, the values of `c1cc(-c2nnco2)cc(-c2nc3cc(Nc4cccc(N5C[C@@H]6C[C@H]5CN6)n4)ncc3s2)c1` [Example 142, 6-[(1S,4S)-2,5-Diazabicyclo[2.2.1]heptan-2-yl]-N-{2-[3-(1,3,4-oxadiazol-2-yl)phenyl]-[1,3]thiazolo[5,4-c]pyridin-6-yl}pyridin-2-amine] are < 100 nM and 1000 to 5000 nM.
With `Cc1cccnc1-c1nc2cc(Nc3cncc(N4C[C@@H]5C[C@H]4CN5)n3)ncc2s1` [Example 144, 6-[(1S,4S)-2,5-Diazabicyclo[2.2.1]heptan-2-yl]-N-[2-(3-methylpyridin-2-yl)-[1,3]thiazolo[5,4-c]pyridin-6-yl]pyrazin-2-amine], the IC50 in assay [1] was < 100 nM; in assay [2], 100 to 1000 nM.
For `Cc1cccnc1-c1nc2cc(Nc3cncc(N4C[C@@H]5C[C@H]4CN5C)n3)ncc2s1` [Example 145, 6-[(1S,4S)-5-Methyl-2,5-diazabicyclo[2.2.1]heptan-2-yl]-N-[2-(3-methylpyridin-2-yl)-[1,3]thiazolo[5,4-c]pyridin-6-yl]pyrazin-2-amine], the IC50 is < 100 nM in assay [1] and 100 to 1000 nM in assay [2].
In the same order, the values of `Cc1cccnc1-c1nc2cc(Nc3cnc(C)c(N4C[C@@H]5C[C@H]4CN5)n3)ncc2s1` [Example 148, 6-[(1S,4S)-2,5-Diazabicyclo[2.2.1]heptan-2-yl]-5-methyl-N-[2-(3-methylpyridin-2-yl)-[1,3]thiazolo[5,4-c]pyridin-6-yl]pyrazin-2-amine] are < 100 nM and < 100 nM.
As to `Cc1cccnc1-c1nc2cc(Nc3ccnc(N4C[C@@H](N)C[C@H]4CO)n3)ncc2s1` [Example 155, [(2S,4S)-4-Mmino-1-(4-{[2-(3-methylpyridin-2-yl)-[1,3]thiazolo[5,4-c]pyridin-6-yl]amino}pyrimidin-2-yl)pyrrolidin-2-yl]methanol], the IC50 is < 100 nM in assay [1] and 100 to 1000 nM in assay [2].
Consider `CN1C[C@@H]2C[C@H]1CN2c1nccc(Nc2cc3nc(-c4ccncc4)sc3cn2)n1` [Example 159, 2-[(1S,4S)-5-Methyl-2,5-diazabicyclo[2.2.1]heptan-2-yl]-N-[2-(pyridin-4-yl)-[1,3]thiazolo[5,4-c]pyridin-6-yl]pyrimidin-4-amine], for which the figures for the IC50 in assay [1] and in assay [2] were < 100 nM and 100 to 1000 nM, respectively.
For `Cc1cc(Nc2cc3nc(-c4ncccc4C)sc3cn2)nc(N2C[C@@H]3C[C@H]2CN3C)n1` [Example 160, 6-Methyl-2-[(1S,4S)-5-methyl-2,5-diazabicyclo[2.2.1]heptan-2-yl]-N-[2-(3-methylpyridin-2-yl)-[1,3]thiazolo[5,4-c]pyridin-6-yl]pyrimidin-4-amine], the IC50 in assay [1] and in assay [2] was < 100 nM each time.
In the case of `Cc1cc(Nc2cc3nc(-c4ncccc4C)sc3cn2)nc(O[C@H]2CCNC2)c1` [Example 164, 4-Methyl-N-[2-(3-methylpyridin-2-yl)-[1,3]thiazolo[5,4-c]pyridin-6-yl]-6-[(3S)-pyrrolidin-3-yloxy]pyridin-2-amine], the IC50 in assay [1] is < 100 nM; in assay [2], 100 to 1000 nM.
For the compound `Cc1cc(Nc2cc3nc(-c4cccnc4)sc3cn2)nc(O[C@H]2CCNC2)c1` [Example 167, 4-Methyl-N-[2-(pyridin-3-yl)-[1,3]thiazolo[5,4-c]pyridin-6-yl]-6-[(3S)-pyrrolidin-3-yloxy]pyridin-2-amine], the IC50 in assay [1] and in assay [2] was < 100 nM throughout.
`Cc1cc(-c2nc3cc(Nc4ccc(C)c(O[C@H]5CCNC5)n4)ncc3s2)ccn1` [Example 172, 5-Methyl-N-[2-(2-methylpyridin-4-yl)-[1,3]thiazolo[5,4-c]pyridin-6-yl]-6-[(3S)-pyrrolidin-3-yloxy]pyridin-2-amine]: the IC50 in assay [1] and in assay [2] was < 100 nM in each case.
With `Cc1cc(Nc2cc3nc(-c4c(F)cccc4F)sc3cn2)nc(O[C@H]2CCNC2)c1` [Example 175, N-[2-(2,6-Difluorophenyl)-[1,3]thiazolo[5,4-c]pyridin-6-yl]-4-methyl-6-[(3S)-pyrrolidin-3-yloxy]pyridin-2-amine], the results for the IC50 in assay [1] and in assay [2] were < 100 nM and 100 to 1000 nM, respectively.
On the same counts, the results for `Cc1cc(Nc2cc3nc(-c4c(C)cccc4F)sc3cn2)nc(O[C@H]2CCNC2)c1` [Example 178, N-[2-(2-Fluoro-6-methylphenyl)-[1,3]thiazolo[5,4-c]pyridin-6-yl]-4-methyl-6-[(3S)-pyrrolidin-3-yloxy]pyridin-2-amine] are < 100 nM and 100 to 1000 nM.
With `Cc1ccc(Nc2cc3nc(-c4ccnn4C)sc3cn2)nc1O[C@H]1CCNC1` [Example 182, 5-Methyl-N-[2-(1-methyl-1H-pyrazol-5-yl)-[1,3]thiazolo[5,4-c]pyridin-6-yl]-6-[(3S)-pyrrolidin-3-yloxy]pyridin-2-amine], the results for the IC50 in assay [1] and in assay [2] were < 100 nM and 100 to 1000 nM, respectively.
On the same counts, the results for `Cc1ccnn1-c1nc2cc(Nc3ccc(N4CCOCC4)c(CN4CCCC4)n3)ncc2s1` [Example 194, N-[2-(5-Methyl-1H-pyrazol-1-yl)-[1,3]thiazolo[5,4-c]pyridin-6-yl]-5-(morpholin-4-yl)-6-[(pyrrolidin-1-yl)methyl]pyridin-2-amine] are < 100 nM and < 100 nM.
In the same order, the values of `Cc1ccc(Nc2cc3nc(-n4nccc4C)sc3cn2)nc1CN1CCCC1` [Example 197, 5-Methyl-N-[2-(5-methyl-1H-pyrazol-1-yl)-[1,3]thiazolo[5,4-c]pyridin-6-yl]-6-[(pyrrolidin-1-yl)methyl]pyridin-2-amine] are < 100 nM and 100 to 1000 nM.
Consider `Cc1ccc(Nc2cc3nc(-n4nccc4C)sc3cn2)nc1CN[C@H]1CCOC1` [Example 198, 5-Methyl-N-[2-(5-methyl-1H-pyrazol-1-yl)-[1,3]thiazolo[5,4-c]pyridin-6-yl]-6-({[(3S)-oxolan-3-yl]amino}methyl)pyridin-2-amine], for which the IC50 in assay [1] is < 100 nM; in assay [2], > 5000 nM.
On the same counts, the results for `Cc1ccc(Nc2cc3nc(-n4cccn4)sc3cn2)nc1CN1CCCC1` [Example 200, 5-Methyl-N-[2-(1H-pyrazol-1-yl)-[1,3]thiazolo[5,4-c]pyridin-6-yl]-6-[(pyrrolidin-1-yl)methyl]pyridin-2-amine] are < 100 nM and 1000 to 5000 nM.
